Experimental data published in publication PMC5078040 (Oncotarget, 2016).

What was measured:
SRPK1 = biological target: T1, SRPK1 (Homo sapiens, UniProt Q96SB4); test: KinomeScan; type: binding; settings: 1uM
T1 construct: purchased DiscoveRx KINOMEscan

FLT3-autoinhibited = biological target: T2, FLT3-autoinhibited (Homo sapiens, UniProt P36888); test: KinomeScan; type: binding; settings: 1uM
T2 construct: purchased DiscoveRx KINOMEscan

FGFR3(G697C) = biological target: T3, FGFR3(G697C) (Homo sapiens, UniProt P22607, G697C); test: KinomeScan; type: binding; settings: 1uM
T3 construct: purchased DiscoveRx KINOMEscan

RIPK1 = biological target: T4, RIPK1 (Homo sapiens, UniProt Q13546); test: KinomeScan; type: binding; settings: 1uM
T4 construct: purchased DiscoveRx KINOMEscan

[1] = biological target: T5, ABL1(H396P)-nonphosphorylated (Homo sapiens, UniProt P00519, H396P); test: KinomeScan; type: binding; settings: 1uM
T5 construct: purchased DiscoveRx KINOMEscan

AMPK-alpha2 = biological target: T6, AMPK-alpha2 (Homo sapiens, UniProt P54646); test: KinomeScan; type: binding; settings: 1uM
T6 construct: purchased DiscoveRx KINOMEscan

GRK4 = biological target: T7, GRK4 (Homo sapiens, UniProt P32298); test: KinomeScan; type: binding; settings: 1uM
T7 construct: purchased DiscoveRx KINOMEscan

PIK3CG = biological target: T8, PIK3CG (Homo sapiens, UniProt P48736); test: KinomeScan; type: binding; settings: 1uM
T8 construct: purchased DiscoveRx KINOMEscan

RIOK1 = biological target: T9, RIOK1 (Homo sapiens, UniProt Q9BRS2); test: KinomeScan; type: binding; settings: 1uM
T9 construct: purchased DiscoveRx KINOMEscan

DLK = biological target: T10, DLK (Homo sapiens, UniProt Q12852); test: KinomeScan; type: binding; settings: 1uM
T10 construct: purchased DiscoveRx KINOMEscan

PRKD2 = biological target: T11, PRKD2 (Homo sapiens, UniProt Q9BZL6); test: KinomeScan; type: binding; settings: 1uM
T11 construct: purchased DiscoveRx KINOMEscan

PDPK1 = biological target: T12, PDPK1 (Homo sapiens, UniProt O15530); test: KinomeScan; type: binding; settings: 1uM
T12 construct: purchased DiscoveRx KINOMEscan

SNRK = biological target: T13, SNRK (Homo sapiens, UniProt Q9NRH2); test: KinomeScan; type: binding; settings: 1uM
T13 construct: purchased DiscoveRx KINOMEscan

PIK3C2B = biological target: T14, PIK3C2B (Homo sapiens, UniProt O00750); test: ADP-glo biochemical assay
T14 construct: purchased Invitrogen
Description: The reaction in each tube was started immediately by adding ATP and kept going for an hour under 37°C. After the tube cooled for 5 minutes at room temperature, 5 μL solvent reactions were carried out in a 384-well plate. Then 5 μL of ADP-Glo™ reagent was added into each well to stop the reaction and consume the remaining ADP within 40 minutes. At the end, 10 μL of kinase detection reagent was added into the well and incubated for 30 minutes to produce a luminescence signal. Luminescence signal was measured with an automated plate reader (Perkin-Elmer Envision) and each measurement was performed in triplicate.

PIP5K2B = biological target: T15, PIP5K2B (Homo sapiens, UniProt P78356); test: KinomeScan; type: binding; settings: 1uM
T15 construct: purchased DiscoveRx KINOMEscan

CIT = biological target: T16, CIT (Homo sapiens, UniProt O14578); test: KinomeScan; type: binding; settings: 1uM
T16 construct: purchased DiscoveRx KINOMEscan

ARK5 = biological target: T17, ARK5 (Homo sapiens, UniProt O60285); test: KinomeScan; type: binding; settings: 1uM
T17 construct: purchased DiscoveRx KINOMEscan

AURKB = biological target: T18, AURKB (Homo sapiens, UniProt Q96GD4); test: KinomeScan; type: binding; settings: 1uM
T18 construct: purchased DiscoveRx KINOMEscan

ROS1 = biological target: T19, ROS1 (Homo sapiens, UniProt P08922); test: KinomeScan; type: binding; settings: 1uM
T19 construct: purchased DiscoveRx KINOMEscan

MST3 = biological target: T20, MST3 (Homo sapiens, UniProt Q9Y6E0); test: KinomeScan; type: binding; settings: 1uM
T20 construct: purchased DiscoveRx KINOMEscan

PRP4 = biological target: T21, PRP4 (Homo sapiens, UniProt Q13523); test: KinomeScan; type: binding; settings: 1uM
T21 construct: purchased DiscoveRx KINOMEscan

KIT(V559D) = biological target: T22, KIT(V559D) (Homo sapiens, UniProt P10721, V559D); test: KinomeScan; type: binding; settings: 1uM
T22 construct: purchased DiscoveRx KINOMEscan

DCAMKL1 = biological target: T23, DCAMKL1 (Homo sapiens, UniProt O15075); test: KinomeScan; type: binding; settings: 1uM
T23 construct: purchased DiscoveRx KINOMEscan

AURKC = biological target: T24, AURKC (Homo sapiens, UniProt Q9UQB9); test: KinomeScan; type: binding; settings: 1uM
T24 construct: purchased DiscoveRx KINOMEscan

[2] = biological target: T25, ABL1(E255K)-phosphorylated (Homo sapiens, UniProt P00519, E255K); test: KinomeScan; type: binding; settings: 1uM
T25 construct: purchased DiscoveRx KINOMEscan

BMPR1A = biological target: T26, BMPR1A (Homo sapiens, UniProt P36894); test: KinomeScan; type: binding; settings: 1uM
T26 construct: purchased DiscoveRx KINOMEscan

T4 sequence (Q13546 whole entry): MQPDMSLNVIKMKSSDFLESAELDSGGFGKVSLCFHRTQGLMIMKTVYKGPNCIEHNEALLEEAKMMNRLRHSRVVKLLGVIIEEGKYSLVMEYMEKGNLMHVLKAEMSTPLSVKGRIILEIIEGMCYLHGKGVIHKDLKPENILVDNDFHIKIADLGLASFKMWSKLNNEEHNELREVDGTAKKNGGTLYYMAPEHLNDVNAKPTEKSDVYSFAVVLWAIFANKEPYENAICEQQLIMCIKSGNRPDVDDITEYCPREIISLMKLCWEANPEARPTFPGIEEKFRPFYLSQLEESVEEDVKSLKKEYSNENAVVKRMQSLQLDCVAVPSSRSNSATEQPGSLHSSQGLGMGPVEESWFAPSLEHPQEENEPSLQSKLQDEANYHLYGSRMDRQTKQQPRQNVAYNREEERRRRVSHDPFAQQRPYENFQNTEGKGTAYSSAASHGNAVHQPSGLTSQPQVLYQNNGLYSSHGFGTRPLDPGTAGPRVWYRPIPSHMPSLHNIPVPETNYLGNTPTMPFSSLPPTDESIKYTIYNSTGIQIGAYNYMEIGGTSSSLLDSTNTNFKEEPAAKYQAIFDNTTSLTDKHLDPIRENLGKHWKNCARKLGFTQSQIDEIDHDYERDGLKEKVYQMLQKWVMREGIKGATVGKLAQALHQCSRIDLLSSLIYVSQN
T17 sequence (O60285 whole entry): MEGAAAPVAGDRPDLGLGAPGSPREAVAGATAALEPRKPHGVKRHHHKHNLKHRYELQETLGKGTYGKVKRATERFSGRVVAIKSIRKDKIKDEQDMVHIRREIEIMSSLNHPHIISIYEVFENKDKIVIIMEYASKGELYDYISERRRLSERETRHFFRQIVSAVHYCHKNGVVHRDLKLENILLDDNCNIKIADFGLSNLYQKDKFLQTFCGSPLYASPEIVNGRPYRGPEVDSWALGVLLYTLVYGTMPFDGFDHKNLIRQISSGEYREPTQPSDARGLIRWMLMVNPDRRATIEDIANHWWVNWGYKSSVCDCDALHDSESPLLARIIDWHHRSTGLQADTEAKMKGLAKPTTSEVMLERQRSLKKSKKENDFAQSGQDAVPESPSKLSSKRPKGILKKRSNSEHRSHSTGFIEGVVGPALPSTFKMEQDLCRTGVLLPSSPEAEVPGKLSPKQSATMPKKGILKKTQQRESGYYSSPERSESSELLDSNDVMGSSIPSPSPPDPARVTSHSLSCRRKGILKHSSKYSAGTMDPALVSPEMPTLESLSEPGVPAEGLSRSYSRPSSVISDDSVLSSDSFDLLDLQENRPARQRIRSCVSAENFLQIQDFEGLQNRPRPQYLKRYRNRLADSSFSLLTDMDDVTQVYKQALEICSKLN
T20 sequence (Q9Y6E0 whole entry): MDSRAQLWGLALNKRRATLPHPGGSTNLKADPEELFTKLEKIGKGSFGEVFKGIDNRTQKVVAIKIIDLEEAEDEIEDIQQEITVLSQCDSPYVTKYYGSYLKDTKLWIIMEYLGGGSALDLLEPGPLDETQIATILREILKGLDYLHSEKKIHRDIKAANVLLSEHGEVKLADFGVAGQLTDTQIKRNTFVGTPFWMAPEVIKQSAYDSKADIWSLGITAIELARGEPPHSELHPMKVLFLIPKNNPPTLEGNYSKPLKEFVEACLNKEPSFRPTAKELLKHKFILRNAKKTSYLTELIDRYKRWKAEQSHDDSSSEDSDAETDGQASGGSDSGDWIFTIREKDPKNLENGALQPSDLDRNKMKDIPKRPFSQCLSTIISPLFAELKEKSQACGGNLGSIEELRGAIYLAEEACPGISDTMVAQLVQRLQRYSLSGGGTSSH
T15 sequence (P78356 whole entry): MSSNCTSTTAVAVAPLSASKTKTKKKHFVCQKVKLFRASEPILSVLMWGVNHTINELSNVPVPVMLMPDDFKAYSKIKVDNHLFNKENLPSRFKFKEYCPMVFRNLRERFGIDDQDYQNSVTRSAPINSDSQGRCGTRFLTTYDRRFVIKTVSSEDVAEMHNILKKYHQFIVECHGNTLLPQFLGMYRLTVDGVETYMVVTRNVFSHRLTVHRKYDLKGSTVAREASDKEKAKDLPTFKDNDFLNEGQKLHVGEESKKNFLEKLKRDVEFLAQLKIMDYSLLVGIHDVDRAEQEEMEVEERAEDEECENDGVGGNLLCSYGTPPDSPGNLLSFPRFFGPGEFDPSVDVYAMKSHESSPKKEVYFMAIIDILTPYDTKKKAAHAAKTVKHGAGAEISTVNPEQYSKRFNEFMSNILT
T8 sequence (P48736 whole entry): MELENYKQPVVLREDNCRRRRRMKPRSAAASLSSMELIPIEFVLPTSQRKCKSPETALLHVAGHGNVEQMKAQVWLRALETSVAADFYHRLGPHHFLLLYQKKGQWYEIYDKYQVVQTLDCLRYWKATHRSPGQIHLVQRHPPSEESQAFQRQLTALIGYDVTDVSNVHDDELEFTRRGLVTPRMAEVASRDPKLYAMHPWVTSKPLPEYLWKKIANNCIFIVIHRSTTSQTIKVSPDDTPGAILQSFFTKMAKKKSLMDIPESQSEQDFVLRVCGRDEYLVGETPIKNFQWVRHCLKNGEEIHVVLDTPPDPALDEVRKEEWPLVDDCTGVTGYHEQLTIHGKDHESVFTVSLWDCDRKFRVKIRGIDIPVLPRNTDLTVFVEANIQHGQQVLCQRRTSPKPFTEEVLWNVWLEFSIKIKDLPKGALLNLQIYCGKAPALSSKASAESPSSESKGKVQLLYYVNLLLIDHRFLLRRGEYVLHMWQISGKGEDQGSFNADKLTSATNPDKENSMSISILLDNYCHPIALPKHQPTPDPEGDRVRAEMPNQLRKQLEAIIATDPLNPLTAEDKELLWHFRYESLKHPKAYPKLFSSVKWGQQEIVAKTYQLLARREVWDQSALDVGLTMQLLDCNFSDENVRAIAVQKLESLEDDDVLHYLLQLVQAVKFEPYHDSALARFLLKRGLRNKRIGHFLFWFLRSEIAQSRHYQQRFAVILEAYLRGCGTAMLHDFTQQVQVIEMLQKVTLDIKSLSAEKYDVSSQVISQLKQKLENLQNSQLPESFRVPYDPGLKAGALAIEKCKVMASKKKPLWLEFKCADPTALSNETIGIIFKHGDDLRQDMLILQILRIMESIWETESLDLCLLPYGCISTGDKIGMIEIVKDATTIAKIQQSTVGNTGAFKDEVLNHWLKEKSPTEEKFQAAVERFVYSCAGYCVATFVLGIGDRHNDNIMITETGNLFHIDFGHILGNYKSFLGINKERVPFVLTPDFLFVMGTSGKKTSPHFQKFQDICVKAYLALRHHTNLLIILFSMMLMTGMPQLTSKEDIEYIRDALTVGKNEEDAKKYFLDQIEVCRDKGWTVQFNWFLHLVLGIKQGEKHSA
T11 sequence (Q9BZL6 whole entry): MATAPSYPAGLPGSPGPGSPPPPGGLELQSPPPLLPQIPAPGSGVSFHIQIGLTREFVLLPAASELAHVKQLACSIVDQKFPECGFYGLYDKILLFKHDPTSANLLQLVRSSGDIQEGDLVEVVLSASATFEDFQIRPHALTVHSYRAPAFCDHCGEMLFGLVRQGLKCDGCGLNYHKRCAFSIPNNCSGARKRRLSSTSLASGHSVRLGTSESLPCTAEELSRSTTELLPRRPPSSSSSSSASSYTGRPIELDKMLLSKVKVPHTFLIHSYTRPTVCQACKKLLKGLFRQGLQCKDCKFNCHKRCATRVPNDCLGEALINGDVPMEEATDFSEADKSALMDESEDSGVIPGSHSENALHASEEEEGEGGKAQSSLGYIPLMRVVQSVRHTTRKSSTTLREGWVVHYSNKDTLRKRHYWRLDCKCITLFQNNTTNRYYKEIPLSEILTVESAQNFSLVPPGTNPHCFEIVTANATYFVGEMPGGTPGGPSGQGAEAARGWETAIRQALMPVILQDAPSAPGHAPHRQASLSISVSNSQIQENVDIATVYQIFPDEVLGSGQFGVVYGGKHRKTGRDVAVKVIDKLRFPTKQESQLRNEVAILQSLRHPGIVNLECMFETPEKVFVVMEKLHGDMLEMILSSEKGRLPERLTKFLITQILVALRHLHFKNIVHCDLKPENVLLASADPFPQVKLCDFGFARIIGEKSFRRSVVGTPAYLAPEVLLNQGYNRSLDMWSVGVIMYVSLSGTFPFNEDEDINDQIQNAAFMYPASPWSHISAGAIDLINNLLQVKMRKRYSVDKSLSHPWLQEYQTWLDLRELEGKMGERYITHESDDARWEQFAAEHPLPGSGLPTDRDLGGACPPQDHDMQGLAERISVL
T7 sequence (P32298 whole entry): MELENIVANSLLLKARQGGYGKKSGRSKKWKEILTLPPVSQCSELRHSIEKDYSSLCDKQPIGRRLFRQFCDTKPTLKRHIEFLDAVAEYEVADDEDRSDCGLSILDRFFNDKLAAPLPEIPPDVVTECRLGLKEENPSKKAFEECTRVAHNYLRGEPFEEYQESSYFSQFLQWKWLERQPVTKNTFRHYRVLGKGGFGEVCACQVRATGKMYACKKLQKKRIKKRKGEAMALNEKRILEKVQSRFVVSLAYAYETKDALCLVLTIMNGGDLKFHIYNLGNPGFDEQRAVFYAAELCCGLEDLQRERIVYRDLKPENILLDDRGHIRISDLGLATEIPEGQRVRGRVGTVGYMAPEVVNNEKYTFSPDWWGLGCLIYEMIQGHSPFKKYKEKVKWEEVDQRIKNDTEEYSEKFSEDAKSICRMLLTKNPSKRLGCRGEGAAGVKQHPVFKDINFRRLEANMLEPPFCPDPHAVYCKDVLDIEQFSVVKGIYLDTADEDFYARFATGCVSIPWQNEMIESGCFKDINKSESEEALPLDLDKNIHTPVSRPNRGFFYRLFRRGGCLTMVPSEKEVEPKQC

`Cc1nc(NC(=O)[C@@H](N)C(C)C)sc1-c1cnc(Cl)c(NS(=O)(=O)c2ccccc2)c1` [PI3KD-IN-015] was tested, and the “KinomeScan SRPK1” value (SRPK1) was 93, the “KinomeScan FLT3-autoinhibited” value (FLT3-autoinhibited) was 100 and the “KinomeScan FGFR3(G697C)” value (FGFR3(G697C)) was 100. The “KinomeScan RIPK1” value (RIPK1) was 100, the “KinomeScan ABL1(H396P)-nonphosphorylated” value [1] was 100 and the “KinomeScan AMPK-alpha2” value (AMPK-alpha2) was 100. For the same molecule, the “KinomeScan GRK4” value (GRK4) was 92, the “KinomeScan PIK3CG” value (PIK3CG) was 0.05 and the “KinomeScan RIOK1” value (RIOK1) was 94. The “KinomeScan DLK” value (DLK) was 99, the “KinomeScan PRKD2” value (PRKD2) was 94 and the “KinomeScan PDPK1” value (PDPK1) was 100. The “KinomeScan SNRK” value (SNRK) was 100, the IC50 (PIK3C2B) was over 10 µM and the “KinomeScan PIP5K2B” value (PIP5K2B) was 100. For the same molecule, the “KinomeScan CIT” value (CIT) was 100, the “KinomeScan ARK5” value (ARK5) was 87 and the “KinomeScan AURKB” value (AURKB) was 100. The “KinomeScan ROS1” value (ROS1) was 99, the “KinomeScan MST3” value (MST3) was 96 and the “KinomeScan PRP4” value (PRP4) was 93. For the same molecule, the “KinomeScan KIT(V559D)” value (KIT(V559D)) was 87, the “KinomeScan DCAMKL1” value (DCAMKL1) was 61 and the “KinomeScan AURKC” value (AURKC) was 77. The “KinomeScan ABL1(E255K)-phosphorylated” value [2] was 77 and the “KinomeScan BMPR1A” value (BMPR1A) was 84.
